Measured values from patent US10174033B2, “N6-substituted adenosine derivatives and N6-substituted adenine derivatives and uses thereof” (INSTITUTE OF MATERIA MEDICA, CHINESE ACADEMY OF MEDICAL …, priority 2009, dated 2019).

Test system: male ICR-mice
Experiment: Potentiation of sodium pentobarbital sleeping time test
Assay type: in vivo
Method: Effects of N^6-substituted adenosine derivatives and/or N^6-substituted adenine derivatives on sodium pentobarbital-induced sleeping time in mice.
Name of Experiment: Potentiation of sodium pentobarbital sleeping time test.
Method of Experiment: Groups of 8-10 male ICR-mice with an average weight of 18-22 g were used. They were dosed orally or i.p. with the test compound or the vehicle. Thirty min after i.p. injection or 60 min after oral dosing 38 mg/kg sodium pentobarbital were injected intravenously. The latency and duration of sleep (loss of righting reflex) were recorded. The percentage of prolongation of sleeping time was calculated as: [(sleeping time of experimental group)−(sleeping time of control group)]/(sleeping time of control group)×100%.

[1] = oral, 5 mg/kg, 38 mg/kg sodium pentobarbital 60 min later
[2] = intraperitoneal, 1 mg/kg, 38 mg/kg sodium pentobarbital 30 min later
[3] = intraperitoneal, 5 mg/kg, 38 mg/kg sodium pentobarbital 30 min later

SMILES | Sleep prolonging rate (%) [1] [%] | further results
Cc1ccc([C@H](C)Nc2ncnc3c2ncn3[C@@H]2O[C@H](CO)[C@@H](O)[C@H]2O)cc1 [Example 60, N^6-[(S)-1-(4-methylphenyl)-ethyl]adenosine] | 19 | 
C[C@@H](Nc1ncnc2c1ncn2[C@@H]1O[C@H](CO)[C@@H](O)[C@H]1O)c1ccc(F)cc1 [Example 70, N^6-[(R)-1-(4-fluorophenyl)-ethyl]-adenosine] | 136 | 
CN(c1ncnc2c1ncn2[C@@H]1O[C@H](CO)[C@@H](O)[C@H]1O)C1CCCCC1 [Example 141, N^6-methyl-N^6-cyclohexyl-adenosine] | 55 | 
CC[C@H](Nc1ncnc2c1ncn2[C@@H]1O[C@H](COC(C)=O)C(O)C1O)c1ccccc1 (stereo partly drawn) [Example 80, N^6-[(S)-1-(phenyl)-propyl]-adenosine-5′-acetate] | 24 | 
CSCC[C@@H](CO)Nc1ncnc2c1ncn2[C@@H]1O[C@H](CO)C(O)C1O (some centres unmarked) [Example 132, N^6-[(L)-2-(1-hydroxy-4-methylthioyl)-butyl]-adenosine] | 53 | 
OC[C@H]1O[C@@H](n2cnc3c(NC(c4ccccc4)c4ccccc4)ncnc32)[C@H](O)[C@@H]1O [Example 95, N^6-(diphenylmethyl)-adenosine] | 16 | 
Cc1cccc(CNc2ncnc3c2ncn3[C@@H]2O[C@H](CO)[C@@H](O)[C@H]2O)c1 [Example 5, N^6-(m-methylbenzyl)-adenosine] |  | Sleep prolonging rate (%) [2]: 84%
CC(Nc1ncnc2c1ncn2[C@@H]1O[C@H](CO)[C@@H](O)[C@H]1O)c1ccc(N)cc1 (mixture of isomers) [Example 48, N^6-[(±)-1-(4-aminophenyl)-ethyl]-adenosine] |  | Sleep prolonging rate (%) (oral, 2.5 mg/kg, 38 mg/kg sodium pentobarbital 60 min later): 132%
OC[C@H]1O[C@@H](n2cnc3c(NC(c4ccccc4)C4CCCCC4)ncnc32)C(O)C1O (mixture of isomers) [Example 93, N^6-[(±)-1-(cyclohexylphenyl)-methyl]-adenosine] | 17 | 
CC(=O)OC[C@H]1O[C@@H](n2cnc3c(NCc4ccc(C)cc4)ncnc32)C[C@H]1OC(C)=O [Example 150, N^6-(p-methylbenzyl)-2′-deoxy-3′,5′-diacetyl adenosine] | 9 | 
OC[C@H]1O[C@@H](n2cnc3c(NC4CCCc5c(O)cccc54)ncnc32)[C@H](O)[C@@H]1O (mixture of isomers) [Example 97, N^6-[(±)-(5-hydroxy-1,2,3,4-tetrahydro-naphthalene-1-yl)]-adenosine] | 39 | 
CC(O)CN(CC(C)O)c1ncnc2c1ncn2[C@@H]1O[C@H](CO)[C@@H](O)[C@H]1O (some centres unmarked) [Example 140, N^6,N^6-bis(2-hydroxypropyl)-adenosine] | 5 | 
CC[C@@H](Nc1ncnc2c1ncn2[C@@H]1O[C@H](COC(C)=O)C(O)C1O)c1ccccc1 (stereo partly drawn) [Example 77, N^6-[(R)-1-(phenyl)-propyl]-adenosine-5′-acetate] | 590 | 
CC[C@@H](Nc1ncnc2c1ncn2C1CCCO1)c1ccccc1 (stereo partly drawn) [Example 146, N^6-[(R)-1-(phenyl)-propyl]-N^9-(tetrahydrofuran-2-yl)-adenine] | 2 | 
CC(Nc1ncnc2c1ncn2[C@@H]1O[C@H](CO)[C@@H](O)[C@H]1O)c1ccc(O)cc1 (mixture of isomers) [Example 47, N^6-[(±)-1-(4-hydroxyphenyl)-ethyl]-adenosine] | 50 | 
CCCC(=O)OC[C@H]1O[C@@H](n2cnc3c(NCc4ccc(OC(=O)CCC)c(OC)c4)ncnc32)[C@@H](O)C1O (some centres unmarked) [N^6-(3-methoxy-4-butanoyloxy-benzyl)-adenosine-5′-butyrate] | 11 | 
CCCC(Nc1ncnc2c1ncn2[C@@H]1O[C@H](CO)[C@@H](O)[C@H]1O)c1ccccc1 (mixture of isomers) [Example 87, N^6-[(±)-1-(phenyl)-butyl]-adenosine] | 57 | 
COc1ccc2c(c1)CCCC2Nc1ncnc2c1ncn2[C@@H]1O[C@H](CO)[C@@H](O)[C@H]1O (mixture of isomers) [Example 96, N^6-[(±)-(6-methoxy-1,2,3,4-tetrahydro-naphthalene-1-yl)]-adenosine] | 170 | 
O=C(O)[C@@H]1CCCN1c1ncnc2c1ncn2[C@@H]1O[C@H](CO)C(O)C1O (some centres unmarked) [Example 118, N-(6-adenosine)-(L)-proline] |  | Sleep prolonging rate (%) [3]: 29%
COc1cccc([C@@H](C)Nc2ncnc3c2ncn3[C@@H]2O[C@H](CO)[C@@H](O)[C@H]2O)c1 [Example 65, N^6-[(R)-1-(3-methoxyphenyl)-ethyl]-adenosine] | 160 | 

SMILES | Sleep prolonging rate (%) [1] [%] | further results
OC[C@H]1O[C@@H](n2cnc3c(N[C@H](CO)[C@H](O)c4ccccc4)ncnc32)C(O)C1O (stereo partly drawn) [Example 42, N^6-[(1R,2R)-2-(1,3-dihydroxy-1-phenyl)-propyl]-adenosine] | 4 | 
COc1cc(CNc2ncnc3c2ncn3[C@H]2C[C@@H](OC(C)=O)[C@@H](COC(C)=O)O2)ccc1O [Example 148, N^6-(3-methoxy-4-hydroxy-benzyl)-2′-deoxy-3′,5′-diacetyl adenosine] | 71 | 
CCCC(=O)Oc1ccc(CNc2ncnc3c2ncn3[C@@H]2O[C@H](CO)[C@@H](O)[C@H]2O)cc1OC [N^6-(3-methoxy-4-butanoyloxy-benzyl)-adenosine] | 11 | 
CC[C@H](C)[C@@H](CO)Nc1ncnc2c1ncn2[C@@H]1O[C@H](CO)C(O)C1O (some centres unmarked) [Example 131, N^6-[(L)-2-(1-hydroxy-3-methyl)-pentyl]-adenosine] | 36 | 
OCC(CO)Nc1ncnc2c1ncn2[C@@H]1O[C@H](CO)C(O)C1O (some centres unmarked) [Example 129, N^6-[2-(1,3-dihydroxy)-propyl]-adenosine] | 184 | 
CCCCCCCC(=O)OC[C@H]1O[C@@H](n2cnc3c(NCc4ccc(OC(=O)CCCCCCC)c(OC)c4)ncnc32)[C@H](O)[C@@H]1O [Example 26, N^6-(3-methoxy-4-octanoyloxybenzyl)-adenosine-5′-caprylate] | 184 | 
CCCOC[C@H]1O[C@@H](n2cnc3c(NCc4ccc5c(c4)OCO5)ncnc32)C(O)C1O (some centres unmarked) [Example 35, N^6-(3,4-methylenedioxybenzyl)-adenosine-5′-propyl ether] | 36 | 
CCN(Cc1ccccc1)c1ncnc2c1ncn2[C@@H]1O[C@H](CO)[C@@H](O)[C@H]1O [Example 134, N^6-ethyl-N^6-benzyl-adenosine] | 7 | 
COc1ccc([C@@H](C)Nc2ncnc3c2ncn3[C@@H]2O[C@H](CO)[C@@H](O)[C@H]2O)cc1 [Example 62, N^6-[(R)-1-(4-methoxyphenyl)-ethyl]-adenosine] | 66 | 
O=C(O)[C@H](Cc1ccc(O)cc1)Nc1ncnc2c1ncn2[C@@H]1O[C@H](CO)C(O)C1O (some centres unmarked) [Example 107, N-(6-adenosine)-(L)-tyrosine] |  | Sleep prolonging rate (%) [3]: 66%
COc1cccc([C@H](C)Nc2ncnc3c2ncn3[C@@H]2O[C@H](CO)[C@@H](O)[C@H]2O)c1 [Example 66, N^6-[(S)-1-(3-methoxyphenyl)-ethyl]-adenosine] | 39 | 
CCCCCCCCCCCC(=O)OCC1OC(n2cnc3c(NCc4ccc(OC(=O)CCCCCCCCCCC)c(OC)c4)ncnc32)C2OC(C)(C)OC12 (centres unmarked) [Example 25, N^6-(3-methoxy-4-lauroyloxybenzyl)-2′,3′-O-isopropylidene-adenosine-5′-laurate] | 27 | 
Nc1ccc(CNc2ncnc3c2ncn3[C@@H]2O[C@H](CO)[C@@H](O)[C@H]2O)cc1 [Example 6, N^6-(p-aminobenzyl)-adenosine] | 171 | Sleep prolonging rate (%) [2]: 165%
COc1cc(C(C)Nc2ncnc3c2ncn3[C@H]2C[C@H](O)[C@@H](CO)O2)cc(OC)c1OC (mixture of isomers) [Example 157, N^6-[(±)-1-(3,4,5-trimethoxyphenyl)-ethyl]-2′-deoxy-adenosine] | 9 | 
CCN(CCO)c1ncnc2c1ncn2[C@@H]1O[C@H](CO)[C@@H](O)[C@H]1O [Example 139, N^6-ethyl-N^6-(2-hydroxyethyl)-adenosine] | 5 | 
Cc1ccc([C@@H](C)Nc2ncnc3c2ncn3[C@@H]2O[C@H](CO)[C@@H](O)[C@H]2O)cc1 [Example 59, N^6-[(R)-1-(4-methylphenyl)-ethyl]-adenosine] | 99 | 
Cc1ccc(CNc2ncnc3c2ncn3[C@@H]2O[C@H](CO)[C@@H](O)[C@H]2O)o1 [Example 18, N^6-(5-methyl-2-furanylmethyl)-adenosine] |  | Sleep prolonging rate (%) [3]: 7%
CC[C@@H](Nc1ncnc2[nH]cnc12)c1ccccc1 [Example 144, N^6-[(R)-1-(phenyl)-propyl]-adenine] | 42 | 
COc1cc(C(C)Nc2ncnc3c2ncn3[C@@H]2O[C@H](CO)[C@@H](O)[C@H]2O)ccc1O (mixture of isomers) [Example 50, N^6-[(±)-1-(3-methoxy-4-hydroxy-phenyl)-ethyl]-adenosine] | 119 | 
Cc1ccc(CNc2ncnc3c2ncn3[C@@H]2O[C@H](CO)[C@@H](O)[C@H]2O)cc1 [Example 4, N^6-(p-methylbenzyl)-adenosine] |  | Sleep prolonging rate (%) [2]: 51%
